Source: US20080064730A1, “Azine Compounds for Combating Animal Pests” (BASF Aktiengesellschaft, priority 2004, published 2008)

Key:
Format in all cases: in vivo
[1] = tested on: Green Peach Aphid (Myzus Persicae); experiment: Green peach aphid test on dipped pepper plants; conditions: 120 h, pepper plant leaves dipped, after 5 days, read-out: mortality in comparison with untreated controls
Description: • The soybean bean cyst nematode culture was maintained in a greenhouse and soybean eggs and J2 larvae were obtained for testing by dislodging soybean cysts from the roots with a sieve. The cysts were broken to release the eggs and the eggs were maintained in water. The eggs hatched after 5-7 days at 28° C. To microtiter plates containing about 150 μg of compound, 80:20 acetone was added to each well and the solution was mixed to obtain the desired compound concentration. The nematode solution was added to the plate. The plates were then sealed and placed in an incubator at 27° C. and 50% (+/−2%) relative humidity. […] II Activity Against Insects II.1 Cotton Aphid (Aphis Gossypii) • The active compounds were formulated in 50:50 acetone:water and 100 ppm Kinetics surfactant. • Cotton plants at the cotyledon stage (one plant per pot) were infested by placing a heavily infested leaf from the main colony on top of each cotyledon. The aphids were allowed to transfer to the host plant overnight, and the leaf used to transfer the aphids was removed. The cotyledons were dipped in the test solution and allowed to dry. […] II.2 Green Peach Aphid (Myzus Persicae) • The active compounds were formulated in 50:50 acetone:water and 100 ppm Kinetic® surfactant. • Pepper plants in the 2nd leaf-pair stage (variety ‘California Wonder’) were infested with approximately 40 laboratory-reared aphids by placing infested leaf sections on top of the test plants. The leaf sections were removed after 24 hr. The leaves of the intact plants were dipped into gradient solutions of the test compound and allowed to dry. Test plants were maintained under fluorescent light (24 hour photoperiod) at about 25° C. and 20-40% relative humidity. […] II.3 Bean Aphid (Aphis Fabae) • The active compounds were formulated in 50:50 acetone:water and 100 ppm Kinetics surfactant. • Nasturtium plants grown in Metro mix in the 1st leaf-pair stage (variety ‘Mixed Jewle’) were infested with approximately 2-30 laboratory-reared aphids by placing infested cut plants on top of the test plants. The cut plants were removed after 24 hr. […]

[2] = tested on: Cotton Aphid (Aphis Gossypii); experiment: Cotton aphid test on dipped cotton cotyledons; conditions: 120 h, after 5 days, read-out: mortality in comparison with untreated controls
Description: (§1) • The soybean bean cyst nematode culture was maintained in a greenhouse and soybean eggs and J2 larvae were obtained for testing by dislodging soybean cysts from the roots with a sieve. The cysts were broken to release the eggs and the eggs were maintained in water. The eggs hatched after 5-7 days at 28° C. To microtiter plates containing about 150 μg of compound, 80:20 acetone was added to each well and the solution was mixed to obtain the desired compound concentration. The nematode solution was added to the plate. The plates were then sealed and placed in an incubator at 27° C. and 50% (+/−2%) relative humidity. […] II Activity Against Insects II.1 Cotton Aphid (Aphis Gossypii) • The active compounds were formulated in 50:50 acetone:water and 100 ppm Kinetics surfactant. • Cotton plants at the cotyledon stage (one plant per pot) were infested by placing a heavily infested leaf from the main colony on top of each cotyledon. The aphids were allowed to transfer to the host plant overnight, and the leaf used to transfer the aphids was removed. The cotyledons were dipped in the test solution and allowed to dry. […]

[3] = tested on: Root-Knot Nematode (Meloidogyne incognita); experiment: Root-knot nematode microtiter plate mortality test; conditions: after 72 hours, J2 nematodes, immobility regarded as mortality, read-out: mortality compared to untreated controls
Description: • Test compounds were prepared and formulated into aqueous formulations using acetone. The formulations were tested using root knot nematode (2nd instar) and soybean cyst nematode (2nd instar) as target species. I.1 Test Procedures for Root-Knot Nematode (Meloidogyne incognita): • Tomato plants (var. Bonny Best) were grown in the greenhouse in plastic tubs (4 to 6 plants per tub). The plants and soil (a 50:50 mixture of sand and “New Egypt” sandy loam) were infested with M. incognita J2 (to establish the “in-house” colony, M. incognita J2 were initially acquired from Auburn University). The plants were kept pruned and were used on an “as needed” basis. The tomato plants were kept in the cylinder containing hydroponic solution and aerated until the nematodes were no longer present in the solution (usually about 60 days). The cultures were checked daily by eluting a small volume (approximately 20 ml) from the bottom of a funnel attached to the cylinder into a small crystallizing dish and observed using a binocular dissecting scope. […] These were counted by putting 25 μl of the nematode solution into a well of an unused well of an assay plate. […] After 72 hours, the population mortality was read, whereby immobility of nematodes was regarded as mortality.

[4] = tested on: Soybean Cyst Nematode (Heterodera Glycine); experiment: Soybean cyst nematode microtiter plate mortality test; conditions: after 72 hours, J2 larvae, immobility regarded as mortality, read-out: mortality compared to untreated controls
Description: I.2 Test Procedures for Soybean Cyst Nematode (Heterodera Glycine):
as §1

Structure (SMILES): Cl/C(=N\N=Cc1cc2ccccc2o1)c1cccs1 [Example 1]
- mortality at 300 ppm [1]: > 75%

Structure (SMILES): CS/C(=N\N=Cc1cc2ccccc2o1)c1cccs1 [Example 2]
- mortality at 300 ppm [2]: > 75%

Structure (SMILES): CO/C(=N\N=Cc1cc2ccccc2o1)c1cccs1 [Example 4]
- mortality at 100 ppm [3]: > 95%

Structure (SMILES): C/C(=N\N=Cc1cc2ccccc2o1)c1cccs1 [Example 5]
- mortality at 300 ppm [1]: > 75%

Structure (SMILES): Cl/C(=N\N=CC=Cc1ccccc1)c1cccs1 [Example 11]
- mortality at 100 ppm [4]: > 95%

Structure (SMILES): C/C(=N\N=CC=Cc1ccccc1)c1cccs1 [Example 12]
- mortality at 300 ppm [1]: > 75%
- mortality at 100 ppm [3]: > 95%
